Structures are written as SMILES.

We go through one compound from patent publication US20180243190A1, “ACTIVATORS OF NRF2-DEPENDENT PHOTOPROTECTION AND RELATED USES THEREOF” (THE ARIZONA BOARD OF REGENTS ON BEHALF OF THE UNIVERSITY OF …, priority 2015, published 2018).

The test system of data set [1] is NRF2. As to the kind of experiment: Cell-based NRF2 ubiquitination assay. Set-up: species or system human. The conditions noted are these: HaCaT, bixin 40 μM or SF 5 μM with MG132 10 μM, 4 h. The procedure:
In order to test if bixin-based NRF2 activation occurs through inhibition of KEAP1-mediated ubiquitination, a cell-based ubiquitination assay was performed in HaCaT cells cotransfected with expression vectors for NRF2 and HA-tagged ubiquitin (HA-Ub) (FIG. 3F). To this end, cells were either exposed to bixin (40 μM) or sulforaphane (SF; 5 μM, positive control) or left untreated, combined with proteasome inhibition (MG132; 10 μM, 4 h).
(§1) Experiments were performed according to previously published procedures. Cells were harvested in sample buffer (50 mM Tris-HCl [pH 6.8], 2% sodium dodecyl sulfate (SDS), 10% glycerol, 100 mM dithiothreitol (DTT), and 0.1% bromophenol blue), boiled and sonicated. Total cell lysates were resolved by SDS-PAGE and subjected to immunoblot analyses with the indicated antibodies. For the ubiquitination assay, cells were cotransfected with expression vectors for NRF2 and HA-tagged ubiquitin (HA-Ub). Cells were left untreated or treated with either 5 μM sulforaphane (SF) or 40 μM bixin along with 10 μM MG132 for 4 h. Cells were harvested in buffer containing 2% SDS, 150 mM NaCl, 10 mM Tris-HCl (pH 8.0), and 1 mM DTT and boiled immediately. […] The relative intensity of the bands was quantified using the ChemiDoc CRS gel documentation system and Quantity One software (BioRad).

In data set [2] the test system is NRF2. As to the kind of experiment: Immunoblot analysis of NRF2 and NRF2 targets in HEKs. As to conditions: ≤20 μM, 24 h, exposure time ≤24 h at 20 μM. Format: cell-based, human. As to the method: as §1, with “immediately. For immunoprecipitation, 1 μg of NRF2 antibody was incubated with the cell lysates at 4° C. overnight with protein A agarose beads (Invitrogen). Immunoprecipitated complexes were washed four times with RIPA buffer and eluted in sample buffer by boiling for 5 min. Samples were resolved by SDS-PAGE and immunoblotted with HA antibody. To measure the half-life of NRF2, HaCaT cells were either left untreated or treated with 5 μM bixin for 4 h, then 50 μM cycloheximide was added to block protein synthesis.” for “immediately.”
In general terms: A western blot detects proteins with antibodies after separation by electrophoresis.

Data set [3] deals with NRF2. In words: Immunoblot analysis in human primary melanocytes. The data set is classed as cell-based. The conditions noted are these: 0-40 μM. The procedure:
Human cultured primary melanocytes (skin pigment producing cells) were treated with Bixin (0-40 μM) for up to 16 h. After 4 and 16 h, cells were harvested for immunoblot analysis testing for Nrf2 upregulation (Nrf2) GAPDH served as loading control.
Human cultured primary melanocytes (skin pigment producing cells) were treated with Bixin (0-40 μM) for 16 h. After 16 h, cells were harvested for immunoblot analysis testing for upregulation of cytoprotective Nrf2 targets including NQO1 and TrxR1. GAPDH served as loading control.

The subject of data set [4] is NRF2, KEAP1, GCLM, AKR1C1 mRNA. As to the kind of experiment: Quantitative real-time RT-PCR in HaCaT cells. The data set is classed as cell-based, human. The conditions noted are these: 40 μM, 4 h and 16 h. An excerpt: Total RNA was extracted from HaCaT cells and mouse skin tissues using TRIzol (Invitrogen). Equal amounts of mRNA were used to generate cDNA using the M-MLV Reverse Transcriptase synthesis kit according to the manufacturer's instructions (Promega). RT-PCR and primer sequences of NRF2, KEAP1, GCLM, AKR1C1 and GAPDH were described previously to evaluate mRNA expression using the LightCycler 480 system (Roche). Quantification of cDNA amount for mouse Nrf2, Keap1, Gclm, and Akr1c1 in each skin tissue sample was performed using the KAPA SYBR FAST qPCR Kit (Kapa Biosystems).
Background: In qPCR the cycle at which signal appears reflects the starting amount.

Data set [5] deals with NRF2. As to the kind of experiment: Immunoblot analysis (NRF2/KEAP1/targets) in HaCaT keratinocytes. Format: cell-based, human. The procedure:
Experiments were performed according to previously published procedures. Cells were harvested in sample buffer (50 mM Tris-HCl [pH 6.8], 2% sodium dodecyl sulfate (SDS), 10% glycerol, 100 mM dithiothreitol (DTT), and 0.1% bromophenol blue), boiled and sonicated. Total cell lysates were resolved by SDS-PAGE and subjected to immunoblot analyses with the indicated antibodies. For the ubiquitination assay, cells were cotransfected with expression vectors for NRF2 and HA-tagged ubiquitin (HA-Ub). Cells were left untreated or treated with either 5 μM sulforaphane (SF) or 40 μM bixin along with 10 μM MG132 for 4 h. Cells were harvested in buffer containing 2% SDS, 150 mM NaCl, 10 mM Tris-HCl (pH 8.0), and 1 mM DTT and boiled immediately. For immunoprecipitation, 1 μg of NRF2 antibody was incubated with the cell lysates at 4° C. overnight with protein A agarose beads (Invitrogen). Immunoprecipitated complexes were washed four times with RIPA buffer and eluted in sample buffer by boiling for 5 min. Samples were resolved by SDS-PAGE and immunoblotted with HA antibody. To measure the half-life of NRF2, HaCaT cells were either left untreated or treated with 5 μM bixin for 4 h, then 50 μM cycloheximide was added to block protein synthesis. Total cell lysates were collected at different time points and subjected to immunoblot analysis with NRF2 antibody. The relative intensity of the bands was quantified using the ChemiDoc CRS gel documentation system and Quantity One software (BioRad).

The subject of data set [6] is primary human epidermal keratinocytes (HEKs). As to the kind of experiment: Oxidative Stress RT2 Profiler PCR Expression Array analysis. The conditions noted are these: bixin 20 μM, 24 h. Format: cell-based. The procedure: Total cellular RNA was prepared according to a standard procedure using the RNeasy kit (Qiagen, Valencia, Calif., USA). Reverse transcription was performed using the RT^2 First Strand kit (SuperArray, Frederick, Md., USA) and 1 μg total RNA. The Human Oxidative Stress RT^2Profiler™ PCR Expression Array (SuperArray) profiling the expression of 84 stress-related genes was employed as described before. Gene-specific product was normalized to ACTB and quantified using the comparative (ΔΔCt) Ct method following the ABI Prism 7000 sequence detection system user guide. Expression values were averaged across three independent array experiments followed by statistical analysis.

In data set [7] the target is T1, KEAP1 wild type (KEAP1-WT) (Homo sapiens, UniProt Q14145).
T1 construct: expressed in transfected cells; host or cells: HaCaT human keratinocytes
The data set is classed as cell-based. As to conditions: SF 5 μM, As 5 μM, bixin 40 μM; 16 h. From the text: (§2) Since it has been shown previously that NRF2 activation by canonical inducers (including SF and tBHQ) depends on C (Cys)-151, a critical cysteine residue in KEAP1, the mechanistic involvement of KEAP1-C151 bixin-based NRF2 activation was examined. HaCaT cells were cotransfected with expression vectors for either KEAP1 wild type (KEAP1-WT) or a mutant KEAP1 (KEAP1-C151S; Cys-151 mutated to serine) along with ARE-firefly luciferase and Renilla luciferase reporters to assess NRF2 transcriptional activity (FIG. 3G). After exposure to SF (5 μM), As (sodium arsenite; 5 μM), or bixin (40 μM; all 16 h), NRF2 transcriptional activity was enhanced by all treatments in KEAP1-WT cells, whereas NRF2 activation by SF or bixin was abolished in KEAP1-C151S cells.
(§3) Transfection of cDNA was performed using Lipofectamine 3000 (Invitrogen) according to the manufacturer's instructions. Activation of NRF2 transcriptional activity was performed as previously published. Briefly, HaCaT cells were cotransfected with expression vectors for either KEAP1 wild type (KEAP1-WT) or KEAP1 with a mutation that generates a protein that contains a serine residue instead of a cysteine (KEAP1-C151S), along with NQO1-ARE firefly luciferase and Renilla luciferase reporters. At 24 h post-transfection, cells were left untreated or treated with SF (5 μM), As (5 μM), or bixin (40 μM) for 16 h. The cells were then lysed for analysis of the reporter gene activity using the Promega dual-luciferase reporter gene assay system.

In a further data set the target is T2, KEAP1-C151S (Homo sapiens, UniProt Q14145, C151S).
T2 construct: expressed in transfected cells; host or cells: HaCaT human keratinocytes
Format: cell-based. The conditions noted are these: SF 5 μM, As 5 μM, bixin 40 μM; 16 h.
Source text: as §2, §3

T2 sequence (Q14145 whole entry C151S): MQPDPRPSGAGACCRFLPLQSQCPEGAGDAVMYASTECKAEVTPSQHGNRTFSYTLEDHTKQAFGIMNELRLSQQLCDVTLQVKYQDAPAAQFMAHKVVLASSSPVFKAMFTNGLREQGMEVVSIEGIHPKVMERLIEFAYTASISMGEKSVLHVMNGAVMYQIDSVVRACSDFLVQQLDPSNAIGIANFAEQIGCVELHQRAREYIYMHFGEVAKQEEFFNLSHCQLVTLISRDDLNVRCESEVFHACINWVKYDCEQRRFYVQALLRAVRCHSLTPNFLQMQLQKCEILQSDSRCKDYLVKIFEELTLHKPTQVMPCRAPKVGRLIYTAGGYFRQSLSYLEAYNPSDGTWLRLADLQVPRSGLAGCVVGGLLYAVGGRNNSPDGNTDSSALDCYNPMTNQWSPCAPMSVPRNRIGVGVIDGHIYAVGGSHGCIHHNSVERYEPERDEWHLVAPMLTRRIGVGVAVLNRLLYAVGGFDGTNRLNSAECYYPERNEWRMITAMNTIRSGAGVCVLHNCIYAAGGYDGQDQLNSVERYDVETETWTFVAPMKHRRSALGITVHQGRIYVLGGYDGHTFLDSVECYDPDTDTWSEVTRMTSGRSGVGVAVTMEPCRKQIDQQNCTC
T1 sequence (Q14145 whole entry, species assumed): as the sequence (Q14145 whole entry C151S) above, with S151C counted along it

Consider `COC(=O)/C=C/C(C)=C\C=C\C(C)=C\C=C\C=C(C)\C=C\C=C(C)\C=C\C(=O)O` [bixin], for which the “NRF2-ubiquitination versus untreated control” value in the data set on NRF2 [1] is reported as “dramatic reduction”. In addition, in the data set on NRF2 [2], the “protein levels of NRF2 and NRF2 targets (NQO1, AKR1C2, HO-1, TrxR, GCLM, SRXN1, FTH1)” value is listed as “increased protein levels”. For the same compound, the “Nrf2 upregulation in melanocytes” value with NRF2 [3] (4 and 16 h) is “efficient Nrf2 activator”. The “upregulation of cytoprotective Nrf2 targets NQO1 and TrxR1 in melanocytes” value in the data set with NRF2 [3] (16 h) was “efficient activator”. For the same compound, in data set [4], the “NRF2 or KEAP1 mRNA levels” value is given as “without affecting” and the “NRF2 target genes at the mRNA level (GCLM, AKR1C1)” value is reported as “pronounced upregulation”. Besides, in the data set with NRF2 [5], the “NRF2 target proteins GCLM and AKR1C1” value is listed as “upregulated”; the “bixin-induced Nrf2 upregulation after 24 h preincubation using NAC” value was “did not attenuate”. Further, in the data set on NRF2 [5] (bixin 20 μM), the “duration of NRF2 upregulation” value is recorded as “sustained over the course of the 24 h treatment” and the “time to detectable induction of NRF2 protein levels” value was at most 2 h. The KEAP1 protein levels result in the data set on NRF2 [5] (bixin 20 μM, 0-48 h) is “no changes”. For the same compound, the “duration of GCLM upregulation” value with NRF2 [5] (bixin 20 μM, 48 h) is “persisted over an extended period”. Moreover, the “bixin-induced upregulation of Nrf2 protein levels under cotreatment with anti-oxidants (tiron, trolox, NAC)” value in the data set on NRF2 [5] (bixin 40 μM, 4 h, 1 h antioxidant pretreatment) is reported as “not attenuated”. Further, the “DCF fluorescence after compound only (no dye sensitization)” value in the data set with HaCaT keratinocytes is reported as “did not cause an increase”. The “protection against 1O2-induced oxidative stress” value in the data set on HaCaT keratinocytes (HaCaT, 20 μM, 1 h preincubation) was “without protective effects”. The “suppression of 1O2-induced increase in DCF fluorescence” value in the data set with HaCaT keratinocytes (HaCaT, 20 μM, 24 h preincubation) is “efficiently suppressed”. In data set [6], the “expression of NRF2 target genes (AKR1C2, GCLC, NQO1, SLC7A11, FTH1, TXNRD1, NCF2, SRXN)” value was “Pronounced upregulation”. In addition, in data set [7], the “NRF2 transcriptional activity in KEAP1-WT cells” value is “enhanced”. Besides, the “NRF2 activation in KEAP1-C151S cells” value on KEAP1-C151S was “abolished”.
